Dmax data for 14 molecules are collected here from US20210283261A1, “Compositions and Methods for Treating ALK-Mediated Cancer” (ICAHN SCHOOL OF MEDICINE AT MOUNT SINAI, priority 2017, published 2021).

The target in this assay is T1, ALK fusion protein (Homo sapiens, UniProt Q9UM73).
T1 construct: endogenous in cells; host or cells: NCI-H3122; the other entry of the earlier key: EML4 (Q9HC35, Echinoderm microtubule-associated protein-like 4)
Description: Western blot of ALK fusion protein levels in NCI-H3122 cells. Format: cell-based. Conditions: NCI-H3122, NCI-H3122 cells, 500 nM, Western blot; read-out: ALK fusion protein degradation, NCI-H3122 (500 nM). The protocol:
SU-DHL-1, NCI-H3122 and NCI-H2228 cells were cultured in RPMI-1640 medium supplemented with 10% fetal bovine serum, 50 μg/mL penicillin and streptomycin. Cells were cultured in a 37° C. incubator with 5% CO2.
Cells were washed with cold PBS once and lysed in 1× Laemmli loading buffer directly. Lysates were heated at 99° C. for […], and resolved on 4-15% precast SDS-PAGE (BIO-RAD) and transferred onto PVDF membrane. Membrane was blocked in 5% milk in Tris-buffered saline and Tween 20 (TBST) for 1 h at room temperature, followed by incubation with a primary antibody overnight at 4° C., and a horseradish peroxidase (HRP)-conjugated secondary antibody for 1 h at room temperature. The membrane was imaged by a ChemiDoc MP imaging system (BIO-RAD). Antibodies against GAPDH (abeam), Phospho-ALK (Tyr1507), ALK (Cell Signaling Technology), Tubulin (Santa Cruz) were purchased commercially. […]

T1 sequence (Q9UM73 with tags, fused parts or gaps): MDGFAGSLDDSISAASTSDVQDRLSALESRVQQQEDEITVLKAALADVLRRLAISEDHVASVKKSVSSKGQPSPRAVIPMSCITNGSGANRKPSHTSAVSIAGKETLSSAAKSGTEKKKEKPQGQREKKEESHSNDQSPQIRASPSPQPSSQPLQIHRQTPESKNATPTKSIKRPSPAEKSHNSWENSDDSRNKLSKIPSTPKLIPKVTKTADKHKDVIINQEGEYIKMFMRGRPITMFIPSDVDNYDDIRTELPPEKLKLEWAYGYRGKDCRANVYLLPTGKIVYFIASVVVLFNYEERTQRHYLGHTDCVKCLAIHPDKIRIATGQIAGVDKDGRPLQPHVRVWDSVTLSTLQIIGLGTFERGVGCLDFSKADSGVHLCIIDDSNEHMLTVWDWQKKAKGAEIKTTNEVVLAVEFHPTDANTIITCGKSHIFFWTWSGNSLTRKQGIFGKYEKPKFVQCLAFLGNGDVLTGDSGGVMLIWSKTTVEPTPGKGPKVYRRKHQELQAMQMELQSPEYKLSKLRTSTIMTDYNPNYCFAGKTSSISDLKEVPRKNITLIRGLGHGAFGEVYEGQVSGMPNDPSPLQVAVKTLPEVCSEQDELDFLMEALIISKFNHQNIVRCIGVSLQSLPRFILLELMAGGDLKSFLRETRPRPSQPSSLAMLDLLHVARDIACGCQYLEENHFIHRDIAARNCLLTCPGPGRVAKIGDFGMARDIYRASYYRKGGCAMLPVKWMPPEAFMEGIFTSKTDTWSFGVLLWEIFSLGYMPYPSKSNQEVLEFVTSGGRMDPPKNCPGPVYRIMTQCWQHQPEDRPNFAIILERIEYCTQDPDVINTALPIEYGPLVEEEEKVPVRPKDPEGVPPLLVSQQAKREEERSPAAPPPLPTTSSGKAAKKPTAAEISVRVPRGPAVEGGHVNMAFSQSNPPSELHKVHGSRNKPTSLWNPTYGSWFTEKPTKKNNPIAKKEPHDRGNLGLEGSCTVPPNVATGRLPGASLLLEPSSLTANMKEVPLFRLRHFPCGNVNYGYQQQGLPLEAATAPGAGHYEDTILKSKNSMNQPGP

Take `Cc1cc(Nc2ncc(Cl)c(Nc3ccccc3S(=O)(=O)C(C)C)n2)c(OC(C)C)cc1C1CCN(C(=O)CCNc2cccc3c2C(=O)N(C2CCC(=O)NC2=O)C3=O)CC1` (centres unmarked) [CZ47-02, 4-((3-(4-(4-((5-Chloro-4-((2-(isopropylsulfonyl)phenyl)amino)pyrimidin-2-yl)amino)-5-isopropoxy-2-methylphenyl)piperidin-1-yl)-3-oxopropyl)amino)-2-(2,6-dioxopiperidin-3-yl)isoindoline-1,3-dione]: the Dmax at 0.5 µM lay in the range of 20 to 80%.

For the molecule `Cc1cc(Nc2ncc(Cl)c(Nc3ccccc3S(=O)(=O)C(C)C)n2)c(OC(C)C)cc1C1CCN(C(=O)COCCOCCOCCOCCOCC(=O)N[C@H](C(=O)N2C[C@H](O)C[C@H]2C(=O)NCc2ccc(-c3scnc3C)cc2)C(C)(C)C)CC1` [CZ47-20, (2S,4R)-1-((S)-2-(tert-Butyl)-20-(4-(4-((5-chloro-4-((2-(isopropylsulfonyl)phenyl)amino)pyrimidin-2-yl)amino)-5-isopropoxy-2-methylphenyl)piperidin-1-yl)-4,20-dioxo-6,9,12,15,18-pentaoxa-3-azaicosanoyl)-4-hydroxy-N-(4-(4-methylthiazol-5-yl)benzyl)pyrrolidine-2-carboxamide], the Dmax at 0.5 µM was under 20%.

Turning to `Cc1cc(Nc2ncc(Cl)c(Nc3ccccc3S(=O)(=O)C(C)C)n2)c(OC(C)C)cc1C1CCN(C(=O)CCCCCCCC(=O)N[C@H](C(=O)N2C[C@H](O)C[C@H]2C(=O)NCc2ccc(-c3scnc3C)cc2)C(C)(C)C)CC1` [CZ47-27, (2S,4R)-1-((S)-2-(9-(4-(4-((5-Chloro-4-((2-(isopropylsulfonyl)phenyl)amino)pyrimidin-2-yl)amino)-5-isopropoxy-2-methylphenyl)piperidin-1-yl)-9-oxononanamido)-3,3-dimethylbutanoyl)-4-hydroxy-7V-(4-(4-methylthiazol-5-yl)benzyl)pyrrolidine-2-carboxamide], the Dmax at 0.5 µM was over 80%.

As to `Cc1cc(Nc2ncc(Cl)c(Nc3ccccc3S(=O)(=O)C(C)C)n2)c(OC(C)C)cc1C1CCN(C(=O)CCOCCOCCC(=O)N[C@H](C(=O)N2C[C@H](O)C[C@H]2C(=O)NCc2ccc(-c3scnc3C)cc2)C(C)(C)C)CC1` [CZ47-16, (2S,4R)-1-((S)-2-(3-(2-(3-(4-(4-((5-Chloro-4-((2-(isopropylsulfonyl)phenyl)amino)pyrimidin-2-yl)amino)-5-isopropoxy-2-methylphenyl)piperidin-1-yl)-3-oxopropoxy)ethoxy)propanamido)-3,3-dimethylbutanoyl)-4-hydroxy-N-(4-(4-methylthiazol-5-yl)benzyl)pyrrolidine-2-carboxamide], the Dmax at 0.5 µM is under 20%.

Turning to `Cc1cc(Nc2ncc(Cl)c(Nc3ccccc3S(=O)(=O)C(C)C)n2)c(OC(C)C)cc1C1CCN(C(=O)CCCNc2cccc3c2C(=O)N(C2CCC(=O)NC2=O)C3=O)CC1` (centres unmarked) [CZ47-03, 4-((4-(4-(4-((5-Chloro-4-((2-(isopropylsulfonyl)phenyl)amino)pyrimidin-2-yl)amino)-5-isopropoxy-2-methylphenyl)piperidin-1-yl)-4-oxobutyl)amino)-2-(2,6-dioxopiperidin-3-yl)isoindoline-1,3-dione], the Dmax at 0.5 µM fell in the range of 20 to 80%.

As to `Cc1cc(Nc2ncc(Cl)c(Nc3ccccc3S(=O)(=O)C(C)C)n2)c(OC(C)C)cc1C1CCN(C(=O)CCC(=O)N[C@H](C(=O)N2C[C@H](O)C[C@H]2C(=O)NCc2ccc(-c3scnc3C)cc2)C(C)(C)C)CC1` [CZ47-22, (2S,4R)-1-((S)-2-(4-(4-(4-((5-Chloro-4-((2-(isopropylsulfonyl)phenyl)amino)pyrimidin-2-yl)amino)-5-isopropoxy-2-methylphenyl)piperidin-1-yl)-4-oxobutanamido)-3,3-dimethylbutanoyl)-4-hydroxy-N-(4-(4-methylthiazol-5-yl)benzyl)pyrrolidine-2-carboxamide], the Dmax at 0.5 µM fell in the range of 20 to 80%.

Take `Cc1cc(Nc2ncc(Cl)c(Nc3ccccc3S(=O)(=O)C(C)C)n2)c(OC(C)C)cc1C1CCN(C(=O)COCCOCCOCC(=O)N[C@H](C(=O)N2C[C@H](O)C[C@H]2C(=O)NCc2ccc(-c3scnc3C)cc2)C(C)(C)C)CC1` [CZ47-17, (2S,4R)-1-((S)-2-(tert-Butyl)-14-(4-(4-((5-chloro-4-((2-(isopropylsulfonyl)phenyl)amino)pyrimidin-2-yl)amino)-5-isopropoxy-2-methylphenyl)piperidin-1-yl)-4,14-dioxo-6,9,12-trioxa-3-azatetradecanoyl)-4-hydroxy-N-(4-(4-methylthiazol-5-yl)benzyl)pyrrolidine-2-carboxamide]: the Dmax at 0.5 µM is under 20%.

In the case of `Cc1cc(Nc2ncc(Cl)c(Nc3ccccc3S(=O)(=O)C(C)C)n2)c(OC(C)C)cc1C1CCN(C(=O)CCOCCOCCOCCOCCOCCNc2cccc3c2C(=O)N(C2CCC(=O)NC2=O)C3=O)CC1` (centres unmarked) [CZ47-12, 4-((18-(4-(4-((5-Chloro-4-((2-(isopropylsulfonyl)phenyl)amino)pyrimidin-2-yl)amino)-5-isopropoxy-2-methylphenyl)piperidin-1-yl)-18-oxo-3,6,9,12,15-pentaoxaoctadecyl)amino)-2-(2,6-dioxopiperidin-3-yl)isoindoline-1,3-dione], the Dmax at 0.5 µM was in the range of 20 to 80%.

For `Cc1cc(Nc2ncc(Cl)c(Nc3ccccc3S(=O)(=O)C(C)C)n2)c(OC(C)C)cc1C1CCN(C(=O)COCC(=O)N[C@H](C(=O)N2C[C@H](O)C[C@H]2C(=O)NCc2ccc(-c3scnc3C)cc2)C(C)(C)C)CC1` [CZ47-13, (2S,4R)-1-((S)-2-(2-(2-(4-(4-((5-Chloro-4-((2-(isopropylsulfonyl)phenyl)amino)pyrimidin-2-yl)amino)-5-isopropoxy-2-methylphenyl)piperidin-1-yl)-2-oxoethoxy)acetamido)-3,3-dimethylbutanoyl)-4-hydroxy-N-(4-(4-methylthiazol-5-yl)benzyl)pyrrolidine-2-carboxamide], the Dmax at 0.5 µM was 20 to 80%.

As to `Cc1cc(Nc2ncc(Cl)c(Nc3ccccc3S(=O)(=O)C(C)C)n2)c(OC(C)C)cc1C1CCN(C(=O)CCCCNc2cccc3c2C(=O)N(C2CCC(=O)NC2=O)C3=O)CC1` (centres unmarked) [CZ47-04, 4-((5-(4-(4-((5-Chloro-4-((2-(isopropylsulfonyl)phenyl)amino)pyrimidin-2-yl)amino)-5-isopropoxy-2-methylphenyl)piperidin-1-yl)-5-oxopentyl)amino)-2-(2,6-dioxopiperidin-3-yl)isoindoline-1,3-dione], the Dmax at 0.5 µM was 20 to 80%.

As to `Cc1cc(Nc2ncc(Cl)c(Nc3ccccc3S(=O)(=O)C(C)C)n2)c(OC(C)C)cc1C1CCN(C(=O)CCOCCOCCOCCOCCNc2cccc3c2C(=O)N(C2CCC(=O)NC2=O)C3=O)CC1` (centres unmarked) [CZ47-11, 4-((15-(4-(4-((5-Chloro-4-((2-(isopropylsulfonyl)phenyl)amino)pyrimidin-2-yl)amino)-5-isopropoxy-2-methylphenyl)piperidin-1-yl)-15-oxo-3,6,9,12-tetraoxapentadecyl)amino)-2-(2,6-dioxopiperidin-3-yl)isoindoline-1,3-dione], the Dmax at 0.5 µM fell in the range of 20 to 80%.

With `Cc1cc(Nc2ncc(Cl)c(Nc3ccccc3S(=O)(=O)C(C)C)n2)c(OC(C)C)cc1C1CCN(C(=O)CCOCCOCCOCCOCCOCCC(=O)N[C@H](C(=O)N2C[C@H](O)C[C@H]2C(=O)NCc2ccc(-c3scnc3C)cc2)C(C)(C)C)CC1` [CZ47-21, (2S,4R)-1-((S)-2-(tert-Butyl)-22-(4-(4-((5-chloro-4-((2-(isopropylsulfonyl)phenyl)amino)pyrimidin-2-yl)amino)-5-isopropoxy-2-methylphenyl)piperidin-1-yl)-4,22-dioxo-7,10,13,16,19-pentaoxa-3-azadocosanoyl)-4-hydroxy-N-(4-(4-methylthiazol-5-yl)benzyl)pyrrolidine-2-carboxamide], the Dmax at 0.5 µM was under 20%.

As for `Cc1cc(Nc2ncc(Cl)c(Nc3ccccc3S(=O)(=O)C(C)C)n2)c(OC(C)C)cc1C1CCN(C(=O)CCCCCCCCC(=O)N[C@H](C(=O)N2C[C@H](O)C[C@H]2C(=O)NCc2ccc(-c3scnc3C)cc2)C(C)(C)C)CC1` [CZ47-28, (2S,4R)-1-((S)-2-(10-(4-(4-((5-Chloro-4-((2-(isopropylsulfonyl)phenyl)amino)pyrimidin-2-yl)amino)-5-isopropoxy-2-methylphenyl)piperidin-1-yl)-10-oxodecanamido)-3,3-dimethylbutanoyl)-4-hydroxy-N-(4-(4-methylthiazol-5-yl)benzyl)pyrrolidine-2-carboxamide], the Dmax at 0.5 µM was under 20%.

Regarding `Cc1cc(Nc2ncc(Cl)c(Nc3ccccc3S(=O)(=O)C(C)C)n2)c(OC(C)C)cc1C1CCN(C(=O)CCOCCNc2cccc3c2C(=O)N(C2CCC(=O)NC2=O)C3=O)CC1` (centres unmarked) [CZ47-08, 4-((2-(3-(4-(4-((5-Chloro-4-((2-(isopropylsulfonyl)phenyl)amino)pyrimidin-2-yl)amino)-5-isopropoxy-2-methylphenyl)piperidin-1-yl)-3-oxopropoxy)ethyl)amino)-2-(2,6-dioxopiperidin-3-yl)isoindoline-1,3-dione], the Dmax at 0.5 µM is over 80%.
